Patent US20110294772A1, “USE OF CYCLOSQUARAMIDE COMPOUNDS AS ANTI-TUMOUR AGENTS” (priority 2008, published 2011)
Where two headings read alike, the source gives them in different places.

Tested on: Jeko-1
Assay: cell viability assay
Assay type: cell-based, human
Conditions: cell viability, total incubation period 48 h, read-out: IC50 (μM) against Jeko-1 cells
Protocol: The IC50 in cell viability assays were determined for some of the macrocycles prepared in Jeko-1 (B-cell lymphoma (MCL) type cells. With a total incubation period of 48 h.

SMILES | IC50 | IC50 (Homo sapiens, JeKo-1, 48 h)
CN1CCCNc2c(c(=O)c2=O)NCCCN(C)CCCNc2c(c(=O)c2=O)NCCCN(C)CCCNc2c(c(=O)c2=O)NCCCN(C)CCCNc2c(c(=O)c2=O)NCCCN(C)CCCNc2c(c(=O)c2=O)NCCCN(C)CCCNc2c(c(=O)c2=O)NCCC1 [Compound 1] | 27 µM | 
CN1CCCNc2c(c(=O)c2=O)NCCCN(C)CCCNc2c(c(=O)c2=O)NCCCN(C)CCCNc2c(c(=O)c2=O)NCCCN(C)CCCNc2c(c(=O)c2=O)NCCCN(C)CCCNc2c(c(=O)c2=O)NCCCN(C)CCCNc2c(c(=O)c2=O)NCCC1 [Compound 2] | 45 µM | 
CSCCC1Nc2c(c(=O)c2=O)NCCCN(C)CCCNc2c(c(=O)c2=O)NCCCN(C)CCCNc2c(c(=O)c2=O)NCCCN(C)CCCNc2c(c(=O)c2=O)NCCCN(C)CCCNc2c(c(=O)c2=O)NCCCNC1=O (stereo not drawn) [Compound 3] |  | 34 µM
CSCCC1Nc2c(c(=O)c2=O)NCCCN(C)CCCNc2c(c(=O)c2=O)NCCCN(C)CCCNc2c(c(=O)c2=O)NCCCN(C)CCCNc2c(c(=O)c2=O)NCCCN(C)CCCNc2c(c(=O)c2=O)NCCCN(C)CCCNc2c(c(=O)c2=O)NCCCNC1=O (stereo not drawn) [Compound 4] |  | 24 µM
CN1CCCNc2c(c(=O)c2=O)NCCCN(C)CCCNc2c(c(=O)c2=O)NCCCN(C)CCCNc2c(c(=O)c2=O)NCCCN(C)CCCNc2c(c(=O)c2=O)NCCCN(C)CCCNc2c(c(=O)c2=O)NCCCN(C)CCCNc2c(c(=O)c2=O)NCCC1 [Compound 5] | 50 µM | 
CN1CCCNc2c(c(=O)c2=O)NCCCN(C)CCCNc2c(c(=O)c2=O)NCCCN(C)CCCNc2c(c(=O)c2=O)NCCCN(C)CCCNc2c(c(=O)c2=O)NCCCN(C)CCCNc2c(c(=O)c2=O)NCCCN(C)CCCNc2c(c(=O)c2=O)NCCC1 [Compound 11] | 9.4 µM | 
